# Source: publication PMC10927987, “Biochemical characterization, structure-guided mutagenesis, and application of a recombinant D-allulose 3-epimerase from Christensenellaceae bacterium for the biocatalytic production of D-allulose” (Frontiers in Bioengineering and Biotechnology, 2024)
# Tested on: T1, CbDAE
# T1 construct: codon-optimized gene in pET-28a(+) (NdeI/EcoRI), E. coli BL21(DE3), Ni-NTA purified, His tag; mutagenesis template given as pET22b-CbDAE
# Test: epimerization, HPLC-RI, Michaelis-Menten fit
# Type: biochemical, Christensenellaceae bacterium
# Settings: standard reaction conditions: 1 mM Co2+, 60 °C, 10 min; 5-300 mM substrate
# Source text: epimerization, HPLC-RI, Michaelis-Menten fit on CbDAE
row,Compound,Km [mM]
1,OCC1(O)OC[C@@H](O)[C@@H](O)[C@H]1O (stereo partly drawn) [D-allulose],44.9 ± 5.1
2,OCC1(O)OC[C@@H](O)[C@H](O)[C@H]1O (stereo partly drawn) [D-sorbose],61.6 ± 4.8
3,OCC1(O)OC[C@@H](O)[C@H](O)[C@@H]1O (stereo partly drawn) [D-tagatose],52.7 ± 6.2
